The source of these data is patent US12281122B1, “PI3K inhibitors” (Cogent Biosciences, Inc., priority 2023, dated 2025).

As usually defined, the IC50 is the concentration that gives 50% inhibition. High values mean weaker potency in that assay, low ones greater potency in that assay.

For experiment [1], the system named is SKBR3 (PI3Kα-Wild Type) cell line. Kind of experiment: HTRF phospho-AKT(S473) cell assay in SKBR3 cells. The format is cell-based, human. The procedure, abridged: (§1)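 HTRF read-out of phospho-AKT(S473) in lysates gave IC50 values after 2 h compound exposure at 37° C. Dose series was 12 points at 1:3, topping at 5 μM for T47D and 10 μM for SKBR3. Only SKBR3 received 70 ng/ml PDGF-BB during the last 15 minutes.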
In general terms: TR-FRET usually uses a lanthanide donor and a delayed reading to cut background.

The subject of experiment [2] is T47D (PI3Kα-H1047R) cell line. Kind of experiment: HTRF phospho-AKT(S473) cell assay in T47D cells. The experiment is classed as cell-based, human. The procedure, abridged: as §1
Where [3] appears, read: Homo sapiens, SK-BR-3; SKBR3 (PI3Kα-Wild Type) cells, HTRF phospho-AKT(S473), 2 hours compound incubation, PDGF-BB stimulated.
[4] abbreviates: Homo sapiens; T47D (PI3Kα-H1047R) cells, HTRF phospho-AKT(S473), 2 hours compound incubation.
Where [5] appears, read: Homo sapiens, SK-BR-3; HTRF phospho-AKT(S473), SKBR3 (PI3Kα-Wild Type) cells, 2 hours compound incubation, PDGF-BB stimulated.
The mark [6] stands for this setting: Homo sapiens; HTRF phospho-AKT(S473), T47D (PI3Kα-H1047R) cells, 2 hours compound incubation.

On to `Cc1cc([C@@H](C)Nc2ccc(Cl)nc2C(=O)NS(C)(=O)=O)c2nc(N3Cc4cn(-c5ccnc(C)c5)nc4C3)n(C)c(=O)c2c1` [Compound 146, (R)-6-chloro-3-((1-(3,6-dimethyl-2-(2-(2-methylpyridin-4-yl)-2,6-dihydropyrrolo[3,4-c]pyrazol-5(4H)-yl)-4-oxo-3,4-dihydroquinazolin-8-yl)ethyl)amino)-N-(methylsulfonyl) picolinamide], for which the results for the IC50 in experiment [1] (setting [3]) and in experiment [2] (setting [4]) were 1 to 5 µM and less than 0.25 µM, respectively.

In the case of `Cc1cc([C@@H](C)Nc2ccc(Cl)nc2C(=O)NS(C)(=O)=O)c2nc(-c3ccc(N(C)C)nc3)n(C)c(=O)c2c1` [Compound 349, (R)-6-chloro-3-((1-(2-(6-(dimethylamino)pyridin-3-yl)-3,6-dimethyl-4-oxo-3,4-dihydroquinazolin-8-yl)ethyl)amino)-N-(methylsulfonyl) picolinamide], the IC50 in experiment [1] (setting [3]) was 1 to 5 µM; in experiment [2] (setting [4]), less than 0.25 µM.

As for `Cc1cc([C@@H](C)Nc2ccc(Cl)nc2C(=O)NS(C)(=O)=O)c2nc(N3CCC(c4ccnn4C(F)F)CC3)n(C)c(=O)c2c1` [Compound 414, (R)-6-chloro-3-((1-(2-(4-(1-(difluoromethyl)-1H-pyrazol-5-yl)piperidin-1-yl)-3,6-dimethyl-4-oxo-3,4-dihydroquinazolin-8-yl)ethyl)amino)-N-(methylsulfonyl) picolinamide], the figures for the IC50 in experiment [1] (setting [3]) and in experiment [2] (setting [4]) were 1 to 5 µM and less than 0.25 µM, respectively.

Turning to `Cc1cc([C@@H](C)Nc2ccc(Cl)nc2C(=O)NS(C)(=O)=O)c2nc(N3CCC[C@@H](c4cnn(C)c4)C3)n(C)c(=O)c2c1` (relative stereo) [Compound 202, 6-chloro-3-(((R)-1-(3,6-dimethyl-2-((R*)-3-(1-methyl-1H-pyrazol-4-yl)piperidin-1-yl)-4-oxo-3,4-dihydroquinazolin-8-yl)ethyl)amino)-N-(methylsulfonyl) picolinamide], the results for the 50% inhibitory concentration (IC50) in experiment [1] (setting [3]) and in experiment [2] (setting [4]) were 1 to 5 µM and less than 0.25 µM, respectively.

`Cc1cc([C@@H](C)Nc2ccc(Cl)nc2C(=O)NS(C)(=O)=O)c2nc(-c3ccc(Oc4cnn(C)c4)nc3)n(C)c(=O)c2c1` [Compound 816, (R)-6-chloro-3-((1-(3,6-dimethyl-2-(6-((1-methyl-1H-pyrazol-4-yl)oxy)pyridin-3-yl)-4-oxo-3,4-dihydroquinazolin-8-yl)ethyl)amino)-N-(methylsulfonyl) picolinamide]: the values for the IC50 in experiment [1] (setting [5]) and in experiment [2] (setting [6]) were 1 to 5 µM and less than 0.25 µM, respectively.

As to `Cc1cc([C@@H](C)Nc2ccc(Cl)nc2C(=O)NS(C)(=O)=O)c2nc(N3[C@@H]4CC[C@H]3C[C@@H](c3cnc(C)nc3)C4)n(C)c(=O)c2c1` [Compound 299, 6-chloro-3-(((R)-1-(3,6-dimethyl-2-((1R,3R,5S)-3-(2-methylpyrimidin-5-yl)-8-azabicyclo[3.2.1]octan-8-yl)-4-oxo-3,4-dihydroquinazolin-8-yl)ethyl)amino)-N-(methylsulfonyl) picolinamide], the IC50 was 1 to 5 µM in experiment [1] (setting [3]) and less than 0.25 µM in experiment [2] (setting [4]).

Turning to `Cc1cc([C@@H](C)Nc2ccc(Cl)nc2C(=O)NS(C)(=O)=O)c2nc(-c3ccc(OCCN4CCOCC4)cc3)n(C)c(=O)c2c1` [Compound 793, (R)-6-chloro-3-((1-(3,6-dimethyl-2-(4-(2-morpholinoethoxy)phenyl)-4-oxo-3,4-dihydroquinazolin-8-yl)ethyl)amino)-N-(methylsulfonyl) picolinamide], the figures for the half-maximal inhibitory concentration (IC50) in experiment [1] (setting [5]) and in experiment [2] (setting [6]) were no less than 5 µM and less than 0.25 µM, respectively.

For `Cc1cc([C@@H](C)Nc2ccc(Cl)nc2C(=O)NS(C)(=O)=O)c2nc(N3C[C@H]4C[C@@H]3CN4c3cnc(C)nc3)n(C)c(=O)c2c1` [Compound 592, 6-chloro-3-(((R)-1-(3,6-dimethyl-2-((1R,4R)-5-(2-methylpyrimidin-5-yl)-2,5-diazabicyclo [2.2.1]heptan-2-yl)-4-oxo-3,4-dihydroquinazolin-8-yl)ethyl)amino)-N-(methylsulfonyl) picolinamide], the values for the IC50 in experiment [1] (setting [5]) and in experiment [2] (setting [6]) were no less than 5 µM and 0.5 to 1 µM, respectively.

Regarding `Cc1cc([C@@H](C)Nc2ccc(Cl)nc2C(=O)NS(C)(=O)=O)c2nc(N3CC[C@H](Oc4ccnnc4)C3)n(C)c(=O)c2c1` [Compound 353, 6-chloro-3-(((R)-1-(3,6-dimethyl-4-oxo-2-((S)-3-(pyridazin-4-yloxy)pyrrolidin-1-yl)-3,4-dihydroquinazolin-8-yl)ethyl)amino)-N-(methylsulfonyl) picolinamide], the IC50 fell in the range of 1 to 5 µM in experiment [1] (setting [3]) and 0.25 to 0.5 µM in experiment [2] (setting [4]).

As to `Cc1cc([C@@H](C)Nc2ccc(Cl)nc2C(=O)NS(C)(=O)=O)c2nc(N(C)CC3(C(F)(F)F)CC3)n(C)c(=O)c2c1` [Compound 163, (R)-6-chloro-3-((1-(3,6-dimethyl-2-(methyl((1-(trifluoromethyl)cyclopropyl)methyl)amino)-4-oxo-3,4-dihydroquinazolin-8-yl)ethyl)amino)-N-(methylsulfonyl) picolinamide], the figures for the IC50 in experiment [1] (setting [3]) and in experiment [2] (setting [4]) were 1 to 5 µM and 0.25 to 0.5 µM, respectively.

As to `Cc1cc([C@@H](C)Nc2ccc(Cl)nc2C(=O)NS(C)(=O)=O)c2nc(N3CCc4nn(C)cc4C3)n(C)c(=O)c2c1` [Compound 286, (R)-6-chloro-3-((1-(3,6-dimethyl-2-(2-methyl-2,4,6,7-tetrahydro-5H-pyrazolo[4,3-c]pyridin-5-yl)-4-oxo-3,4-dihydroquinazolin-8-yl)ethyl)amino)-N-(methylsulfonyl) picolinamide], the IC50 in experiment [1] (setting [3]) was 1 to 5 µM; in experiment [2] (setting [4]) it was less than 0.25 µM.

Take `COC1CCC2(CC1)CCN(c1nc3c([C@@H](C)Nc4ccc(Cl)nc4C(=O)NS(C)(=O)=O)cc(C)cc3c(=O)n1C)CC2` [Compound 282, (R)-6-chloro-3-((1-(2-(9-methoxy-3-azaspiro[5.5]undecan-3-yl)-3,6-dimethyl-4-oxo-3,4-dihydroquinazolin-8-yl)ethyl)amino)-N-(methylsulfonyl) picolinamide]: the IC50 in experiment [1] (setting [3]) is no less than 5 µM; in experiment [2] (setting [4]), less than 0.25 µM.

For `Cc1cc([C@@H](C)Nc2ccc(Cl)nc2C(=O)NS(C)(=O)=O)c2nc(N3CCC(c4ccn(C(F)(F)F)n4)CC3)n(C)c(=O)c2c1` [Compound 445, (R)-6-chloro-3-((1-(3,6-dimethyl-4-oxo-2-(4-(1-(trifluoromethyl)-1H-pyrazol-3-yl)piperidin-1-yl)-3,4-dihydroquinazolin-8-yl)ethyl)amino)-N-(methylsulfonyl) picolinamide], the IC50 in experiment [1] (setting [5]) is no less than 5 µM; in experiment [2] (setting [6]) it was 0.25 to 0.5 µM.

With `Cc1cc([C@@H](C)Nc2ccc(Cl)nc2C(=O)NS(C)(=O)=O)c2nc(N3C[C@H]4C[C@@H]3CN4c3nccnc3C)n(C)c(=O)c2c1` [Compound 624, 6-chloro-3-(((R)-1-(3,6-dimethyl-2-((1R,4R)-5-(3-methylpyrazin-2-yl)-2,5-diazabicyclo [2.2.1]heptan-2-yl)-4-oxo-3,4-dihydroquinazolin-8-yl)ethyl)amino)-N-(methylsulfonyl) picolinamide], the IC50 was no less than 5 µM in experiment [1] (setting [5]) and 0.25 to 0.5 µM in experiment [2] (setting [6]).

Regarding `COc1cncc(C2CCN(c3nc4c([C@@H](C)Nc5ccc(Cl)nc5C(=O)NS(C)(=O)=O)cc(C)cc4c(=O)n3C)CC2)n1` [Compound 400, (R)-6-chloro-3-((1-(2-(4-(6-methoxypyrazin-2-yl)piperidin-1-yl)-3,6-dimethyl-4-oxo-3,4-dihydroquinazolin-8-yl)ethyl)amino)-N-(methylsulfonyl) picolinamide], the IC50 in experiment [1] (setting [3]) lay within 1 to 5 µM; in experiment [2] (setting [4]), 0.25 to 0.5 µM.

In the case of `Cc1cc([C@@H](C)Nc2ccc(Cl)nc2C(=O)NS(C)(=O)=O)c2nc(N3Cc4cnn(-c5cccnc5C)c4C3)n(C)c(=O)c2c1` [Compound 252, (R)-6-chloro-3-((1-(3,6-dimethyl-2-(1-(2-methylpyridin-3-yl)-4,6-dihydropyrrolo[3,4-c]pyrazol-5(1H)-yl)-4-oxo-3,4-dihydroquinazolin-8-yl)ethyl)amino)-N-(methylsulfonyl) picolinamide], the figures for the IC50 in experiment [1] (setting [3]) and in experiment [2] (setting [4]) were 1 to 5 µM and less than 0.25 µM, respectively.

In the case of `Cc1cnc(N2C[C@@H]3C[C@H]2CN3c2nc3c([C@@H](C)Nc4ccc(Cl)nc4C(=O)NS(C)(=O)=O)cc(C)cc3c(=O)n2C)nc1` [Compound 564, 6-chloro-3-(((R)-1-(3,6-dimethyl-2-((1S,4S)-5-(5-methylpyrimidin-2-yl)-2,5-diazabicyclo[2.2.1]heptan-2-yl)-4-oxo-3,4-dihydroquinazolin-8-yl)ethyl)amino)-N-(methylsulfonyl) picolinamide], the results for the IC50 in experiment [1] (setting [5]) and in experiment [2] (setting [6]) were no less than 5 µM and 0.25 to 0.5 µM, respectively.

Consider `Cc1cc([C@@H](C)Nc2ccc(Cl)nc2C(=O)NS(C)(=O)=O)c2nc(N3CCC(c4ncc(C(F)F)cn4)CC3)n(C)c(=O)c2c1` [Compound 504, (R)-6-chloro-3-((1-(2-(4-(5-(difluoromethyl)pyrimidin-2-yl)piperidin-1-yl)-3,6-dimethyl-4-oxo-3,4-dihydroquinazolin-8-yl)ethyl)amino)-N-(methylsulfonyl) picolinamide], for which the figures for the IC50 in experiment [1] (setting [5]) and in experiment [2] (setting [6]) were 1 to 5 µM and less than 0.25 µM, respectively.

Regarding `Cc1cc([C@@H](C)Nc2ccc(Cl)nc2C(=O)NS(C)(=O)=O)c2nc(N3CC[C@@H](c4ccnc(C)c4)C3)n(C)c(=O)c2c1` (relative stereo) [Compound 764, 6-chloro-3-(((R)-1-(3,6-dimethyl-2-((R*)-3-(2-methylpyridin-4-yl)pyrrolidin-1-yl)-4-oxo-3,4-dihydroquinazolin-8-yl)ethyl)amino)-N-(methylsulfonyl) picolinamide], the IC50 is 1 to 5 µM in experiment [1] (setting [5]) and less than 0.25 µM in experiment [2] (setting [6]).
